Experimental data reported in paper PMC11017246, “Discovery of GLPG2737, a Potent Type 2 Corrector of CFTR for the Treatment of Cystic Fibrosis in Combination with a Potentiator and a Type 1 Co-corrector” (Journal of Medicinal Chemistry, 2024).

Columns and labels:
[1] = Liver microsomal stability, human; type: in vitro ADME; conditions: liver microsomes; human microsomes; calculated from measured fumic; read-out: Mic CLint,u human (converted)
Protocol: (§1) The microsomal stability assay was performed by incubation of test compound at 1 μM, 0.2% DMSO in phosphate buffer with microsomes (0.5 mg/mL) from mouse, rat, dog, or human (Xeno-Tech, Kansas City, KS, USA), and cofactors with final concentrations of 0.6 U/mL glucose-6- phosphate dehydrogenase, 3.3 mM MgCl2, 3.3 mM glucose-6-phosphate, and 1.3 mM nicotinamide adenine dinucleotide phosphate (NADP)+. Before addition of the microsomes (time zero) and after 30 min of incubation at 37 °C with shaking, the reaction was stopped, and proteins were precipitated with an excess of acetonitrile containing an internal standard. The samples were mixed, centrifuged, and filtered, and the supernatant was analyzed by liquid chromatography–mass spectrometry/mass spectrometry (LC–MS/MS). The instrument responses (peak areas/IS peak areas) were referenced to the zero-time point samples (considered as 100%) to determine the percentage of compound remaining. In vitro unbound intrinsic clearance (CLint,u) was calculated from the half-life using the following equations: [drawing 1] [drawing 2] To take into account nonspecific binding, scaled CLint values were corrected with the fraction unbound in microsomes (fu, mic). [drawing 3]
(§2) Equilibrium dialysis is a technique used to measure microsomal binding. Briefly, the assay was performed in a 96-well Teflon dialysis unit (Dialysis Device), where each well consists of two chambers separated by a dialysis membrane (membrane strips, MW cutoff 12–14 kDa, HTDialysis). Inactivated liver microsomes (pooled human liver microsomes, Xenotech, protein concentration of 0.5 mg/mL) spiked with a compound (1 μM final concentration, 0.5% DMSO) were added to one chamber and buffer solution (50 mM PBS Buffer) was added to the other side of the well. Each compound was analyzed in duplicate for 4 h at 37 °C. At the end of incubation, both chambers were sampled and analyzed by LC-MS/MS. The unbound microsomal fraction (fu, mic) was calculated as the concentration in buffer divided by the total concentration in the microsomal side. Positive controls included in this assay are terfenadine and verapamil.

[2] = Hepatocyte stability, rat; type: in vitro ADME; conditions: read-out: Hep CLint,u rat (converted)
Protocol: (§3) The hepatocyte stability assay was performed by incubation of test compound at 1 μM, 0.03% DMSO in modified Krebs–Henseleit buffer with suspension of pooled cryopreserved hepatocytes (BioIVT, Hicksville, NY, USA) from mouse, rat, dog, or human (BioIVT, Hicksville, NY, USA) at 0.5 million viable hepatocytes/mL. Before adding the hepatocytes (time zero) and after 10, 20, 45, 90, 120, and 180 min of incubation (n = 2) at 37 °C while gently shaking, the reaction was stopped and proteins were precipitated with an excess of acetonitrile containing an internal standard. The samples were mixed, centrifuged, and filtered, and the supernatant was analyzed by liquid chromatography–mass spectrometry/mass spectrometry (LC–MS/MS). The instrument responses (peak areas/IS peak areas) were referenced to the zero-time point samples (considered as 100%) in order to determine the percentage of compound remaining.

[3] = Liver microsomal stability, rat; type: in vitro ADME; conditions: liver microsomes; rat microsomes; calculated from measured fumic; read-out: Mic CLint,u rat (converted)
Protocol: as §1, §2

ΔF508 CFTR = molecular target: T1, ΔF508 CFTR (Homo sapiens, UniProt P13569, DEL508-508); assay: CSE-HRP: cell surface expression horseradish peroxidase assay in CFBE41o- cells; type: cell-based; conditions: no additional corrector; for Emax: CFBE41o-, relative to lumacaftor or 5 (3 μM) positive control, read-out: CSE-HRP % max activation; for EC50: 24 h incubation, 33 °C, geometric mean, read-out: CSE-HRP EC50
T1 construct: host or cells: CFBE41o- TetON cells, expression induced with doxycycline
Protocol: A CFBE41o– cell line stably expressing ΔF508 CFTR harboring an HRP-tag in the fourth extracellular loop was obtained from Professor Gergely Lukacs (Department of Physiology, McGill University, Montreal, QC, Canada).[25] Cells were grown in Eagle’s minimal essential medium (Life Technologies) supplemented with 10% FBS, 1% L-glutamine (Life Technologies), 10 mM HEPES (Life Technologies), 200 μg/mL Geneticin (Life Technologies), and 3 μg/mL puromycin (Sigma) in culture flasks coated with 0.01% bovine serum albumin (BSA) (Sigma), 30 μg/mL Purecol (Nutacon), and 0.001% human fibronectin (Sigma).
CFBE41o– TetON cells expressing HRP tagged ΔF508-CFTR were seeded in white 384-well plates (Greiner) at a density of 2000 cells per well. Medium containing 500 ng/mL doxycycline was used to induce expression of ΔF508-CFTR-HRP. After 3 days, cells were treated with corrector or potentiator compounds and transferred to an incubator at 33 °C. On day 4, cells were washed five times with PBS containing Ca^2+ and Mg^2+ using a Bio-Tek plate washer and incubated with a chemiluminescent HRP substrate (SuperSignal West Pico Chemiluminescent Substrate, Thermo Scientific) for 15 min. Chemiluminescence was measured using an Envision plate reader (PerkinElmer). Dose response data was fitted using a 4 parameter hill function of the form Response = neg control + (pos control – neg control)/(1 + 10^(log EC50-concentration)/HillSlope) to determine EC50 values. Percentage efficacy was calculated using the following formula: (max response – neg control)/(C1 response – neg control).

[4] = Hepatocyte stability, human; type: in vitro ADME; conditions: human hepatocytes; read-out: Hep CLint,u human
Protocol: as §3

[5] = pooled cryopreserved hepatocytes in suspension

T1 sequence (P13569 with tags, fused parts or gaps DEL508-508): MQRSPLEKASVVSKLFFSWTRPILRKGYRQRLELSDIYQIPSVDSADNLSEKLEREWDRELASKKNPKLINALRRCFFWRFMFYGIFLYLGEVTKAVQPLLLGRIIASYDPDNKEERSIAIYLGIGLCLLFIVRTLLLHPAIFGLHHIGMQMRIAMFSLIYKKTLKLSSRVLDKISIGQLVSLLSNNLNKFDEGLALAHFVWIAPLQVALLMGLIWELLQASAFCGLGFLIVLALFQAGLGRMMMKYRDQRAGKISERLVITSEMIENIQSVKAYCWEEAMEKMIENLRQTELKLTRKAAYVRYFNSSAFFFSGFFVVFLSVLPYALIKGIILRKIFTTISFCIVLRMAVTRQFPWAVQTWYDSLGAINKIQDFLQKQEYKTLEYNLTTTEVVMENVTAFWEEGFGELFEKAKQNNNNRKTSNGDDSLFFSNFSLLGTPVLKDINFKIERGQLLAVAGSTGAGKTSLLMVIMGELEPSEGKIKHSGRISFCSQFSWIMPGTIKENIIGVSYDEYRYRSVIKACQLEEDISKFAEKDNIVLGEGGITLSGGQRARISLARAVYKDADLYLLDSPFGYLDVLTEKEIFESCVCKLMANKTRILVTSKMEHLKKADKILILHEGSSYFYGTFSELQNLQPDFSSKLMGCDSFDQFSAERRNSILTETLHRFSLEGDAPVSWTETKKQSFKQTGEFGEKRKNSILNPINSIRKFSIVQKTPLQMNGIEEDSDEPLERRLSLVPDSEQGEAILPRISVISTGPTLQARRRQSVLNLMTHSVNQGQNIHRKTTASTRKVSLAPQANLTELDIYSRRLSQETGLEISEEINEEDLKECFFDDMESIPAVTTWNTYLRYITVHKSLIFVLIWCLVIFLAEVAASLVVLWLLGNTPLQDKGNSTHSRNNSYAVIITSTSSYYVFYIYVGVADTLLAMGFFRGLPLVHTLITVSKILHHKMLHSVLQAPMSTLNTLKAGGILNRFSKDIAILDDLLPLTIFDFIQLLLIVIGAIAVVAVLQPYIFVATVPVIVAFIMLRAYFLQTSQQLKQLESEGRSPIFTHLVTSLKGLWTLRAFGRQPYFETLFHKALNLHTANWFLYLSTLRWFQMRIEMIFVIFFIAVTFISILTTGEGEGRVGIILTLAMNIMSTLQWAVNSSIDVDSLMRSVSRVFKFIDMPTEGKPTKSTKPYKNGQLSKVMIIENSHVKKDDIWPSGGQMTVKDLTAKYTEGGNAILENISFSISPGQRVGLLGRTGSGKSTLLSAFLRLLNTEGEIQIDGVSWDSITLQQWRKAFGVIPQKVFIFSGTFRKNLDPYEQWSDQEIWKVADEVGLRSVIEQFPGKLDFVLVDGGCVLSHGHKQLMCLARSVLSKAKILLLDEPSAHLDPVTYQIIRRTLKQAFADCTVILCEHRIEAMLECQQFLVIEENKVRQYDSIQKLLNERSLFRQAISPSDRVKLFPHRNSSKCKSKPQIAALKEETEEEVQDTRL

CLint scaled at 1 μM [1] [mL/min/kg]	CLint scaled at 1 μM [2, 5] [mL/min/kg]	CLint scaled at 1 μM [3] [mL/min/kg]	Emax (ΔF508 CFTR) [%]	EC50 (ΔF508 CFTR) [µM]	CLint scaled at 1 μM ([2]; rat hepatocytes) [mL/min/kg]	CLint scaled at 1 μM [4] [mL/min/kg]	Compound
173	305	180	95	2.48	–	–	COc1ccc(-c2cc(C(=O)O)nc3c2c(C)nn3-c2ccccc2)cc1 [Compound 7]
< 28.3	–	< 43.3	–	–	66.7	< 45.7	Cc1nn(-c2ccccc2)c2nc(C(=O)O)cc(-c3ccc(N4CCOCC4)cc3)c12 [Compound 8]
< 59.8	263	182	64	4.13	–	–	COc1ccc(-c2cc(C(=O)O)nc3c2c(C)nn3-c2ccc(C)cc2)cc1 [Compound 6]
